Results as given in PubChem BioAssay AID330 (DTP/NCI, 2004).
Several values for one entry are separate records, joined by “and”; a condition that tells them apart may be missing. Equal values may be shown once. Inconclusive results and toxic doses are left out. Rule for the calls: active = survival T/C of 150% or more; inactive = T/C below 125% in these data.

Tested on: P388 leukemia ip, CD2F1 mice, survival T/C
Test: NCI In Vivo Anticancer Drug Screen. Data for tumor model P388 Leukemia (intraperitoneal) in CD2F1 (CDF1) mice
Details: endpoint: median survival time, higher = longer survival
Procedure: The antitumor activity of compounds was measured in mice bearing transplantable tumors. Survival or tumor size were measured and the results are expressed as the measurement made in the treated group (T) divided by the measurement made in the vehicle treated control group (C). The tumor model used in this assay is P388 Leukemia (intraperitoneal) in CD2F1 (CDF1) mice

[1] = dose: 50.0 mg/kg/injection, schedule: Q01DX005 (ip), vehicle: saline with Tween-80
[2] = dose: 100.0 mg/kg/injection, schedule: Q01DX005 (ip), vehicle: saline with Tween-80
[3] = dose: 200.0 mg/kg/injection, schedule: Q01DX005 (ip), vehicle: saline with Tween-80
[4] = dose: 12.5 mg/kg/injection, schedule: Q01DX009 (ip), vehicle: saline with Tween-80
[5] = dose: 12.5 mg/kg/injection, schedule: Q01DX009 (ip), vehicle: saline
[6] = dose: 25.0 mg/kg/injection, schedule: Q01DX009 (ip), vehicle: saline
[7] = dose: 50.0 mg/kg/injection, schedule: Q01DX009 (ip), vehicle: saline
[8] = dose: 60.0 mg/kg/injection, schedule: Q01DX005 (ip), vehicle: saline with Tween-80
[9] = dose: 120.0 mg/kg/injection, schedule: Q01DX005 (ip), vehicle: saline with Tween-80
[10] = dose: 240.0 mg/kg/injection, schedule: Q01DX005 (ip), vehicle: saline with Tween-80
[11] = dose: 50.0 mg/kg/injection, schedule: Q01DX009 (ip), vehicle: Klucel (hydroxypropylcellulose) (HPC)
[12] = dose: 100.0 mg/kg/injection, schedule: Q01DX009 (ip), vehicle: Klucel (hydroxypropylcellulose) (HPC)
[13] = dose: 200.0 mg/kg/injection, schedule: Q01DX009 (ip), vehicle: Klucel (hydroxypropylcellulose) (HPC)
[14] = dose: 25.0 mg/kg/injection, schedule: Q01DX009 (ip), vehicle: saline with Tween-80
[15] = dose: 50.0 mg/kg/injection, schedule: Q01DX009 (ip), vehicle: saline with Tween-80
[16] = dose: 12.5 mg/kg/injection, schedule: Q01DX005 (ip), vehicle: saline with Tween-80
[17] = dose: 25.0 mg/kg/injection, schedule: Q01DX005 (ip), vehicle: saline with Tween-80
[18] = dose: 100.0 mg/kg/injection, schedule: Q01DX009 (ip), vehicle: saline with Tween-80
[19] = dose: 200.0 mg/kg/injection, schedule: Q01DX009 (ip), vehicle: saline with Tween-80

Measured: T/C

Clc1cccc2nncn12
inactive: dose: 50.0 mg/kg/injection, schedule: Q01DX001 (ip), vehicle: saline 98 % of control | dose: 100.0 mg/kg/injection, schedule: Q01DX001 (ip), vehicle: saline 102 % of control | dose: 200.0 mg/kg/injection, schedule: Q01DX001 (ip), vehicle: saline 100 % of control

S=c1n(-c2ccc(Cl)cc2)c2nc3ccccc3nc(/c2=N\Nc2ccccc2)n1-c1ccc(Br)cc1
inactive: [1] 92 % of control | [2] 105 % of control | [3] 105 % of control

CC(CN(C)C)CN1c2ccccc2Sc2ccccc21 (stereo not drawn)
inactive: dose: 12.5 mg/kg/injection, schedule: Q04DX003 (ip), vehicle: saline with Tween-80 112 % of control | dose: 25.0 mg/kg/injection, schedule: Q04DX003 (ip), vehicle: saline with Tween-80 115 % of control | dose: 33.0 mg/kg/injection, schedule: Q04DX003 (ip), vehicle: saline with Tween-80 123 % of control | dose: 50.0 mg/kg/injection, schedule: Q04DX003 (ip), vehicle: saline with Tween-80 117 % of control

CCCCCCCCCCNC(=O)C[n+]1cccc(C(=O)NCc2ccccc2)c1
inactive: dose: 3.13 mg/kg/injection, schedule: Q01DX009 (ip), vehicle: saline with Tween-80 100 % of control | dose: 6.25 mg/kg/injection, schedule: Q01DX009 (ip), vehicle: saline with Tween-80 95 % of control | [4] 90 % of control

CCOCCOCCOC12C(=O)C(Cl)=C(Cl)C(=O)C13C1CC2C(Cl)C13 (stereo not drawn)
inactive: [5] 98 % of control | [6] 105 % of control | [7] 105 % of control and 106 % of control

Oc1ccccc1O.[O-]c1ccccc1[O-].[O-]c1ccccc1[O-].[O]=[V+2]
inactive: dose: 5.0 mg/kg/injection, schedule: Q01DX009 (ip), vehicle: saline 100 % of control | dose: 5.0 mg/kg/injection, schedule: Q04DX003 (ip), vehicle: saline 95 % of control | dose: 10.0 mg/kg/injection, schedule: Q01DX009 (ip), vehicle: saline 90 % of control | dose: 10.0 mg/kg/injection, schedule: Q04DX003 (ip), vehicle: saline 118 % of control | dose: 20.0 mg/kg/injection, schedule: Q04DX003 (ip), vehicle: saline 100 % of control

COc1ccc2c(c1)C(=O)[C@]1(C)C3(C)OC(=O)C(c4ccccc43)[C@]21C (stereo partly drawn)
inactive: [8] 110 % of control | [9] 105 % of control | [10] 98 % of control

CCC1=CCC2C(=O)C3CC(CC)=CCC3C(=O)C2C1 (stereo not drawn)
inactive: dose: 12.5 mg/kg/injection, schedule: Q01DX005 (ip), vehicle: Klucel (hydroxypropylcellulose) (HPC) 97 % of control | dose: 25.0 mg/kg/injection, schedule: Q01DX005 (ip), vehicle: Klucel (hydroxypropylcellulose) (HPC) 92 % of control | dose: 50.0 mg/kg/injection, schedule: Q01DX005 (ip), vehicle: Klucel (hydroxypropylcellulose) (HPC) 87 % of control and 88 % of control

[Ni+2].[O-]/C(=N\N=C\c1ccccn1)c1ccccc1O.[O-]/C(=N\N=C\c1ccccn1)c1ccccc1O
inactive: dose: 50.0 mg/kg/injection, schedule: Q04DX002 (ip), vehicle: saline with Tween-80 98 % of control | dose: 100.0 mg/kg/injection, schedule: Q04DX002 (ip), vehicle: saline with Tween-80 101 % of control | dose: 200.0 mg/kg/injection, schedule: Q04DX002 (ip), vehicle: saline with Tween-80 89 % of control

C[n+]1cc2ccccc2cc1CC(=S)[S-]
inactive: dose: 25.0 mg/kg/injection, schedule: Q01DX009 (ip), vehicle: Klucel (hydroxypropylcellulose) (HPC) 98 % of control | [11] 98 % of control | [12] 99 % of control | [13] 91 % of control

CCCCNC(=S)NC(=O)c1ccccc1
inactive: [14] 95 % of control | [15] 94 % of control

C=COC(=O)C(Cc1ccc(OC)cc1)NC(=O)OCc1ccccc1 (stereo not drawn)
inactive: dose: 100.0 mg/kg/injection, schedule: Q04DX002 (ip), vehicle: Klucel (hydroxypropylcellulose) (HPC) 103 % of control | dose: 200.0 mg/kg/injection, schedule: Q04DX002 (ip), vehicle: Klucel (hydroxypropylcellulose) (HPC) 91 % of control | dose: 400.0 mg/kg/injection, schedule: Q04DX002 (ip), vehicle: Klucel (hydroxypropylcellulose) (HPC) 94 % of control

COc1ccc(C2CC(c3ccccc3)=Nc3ccccc3S2)cc1 (stereo not drawn)
inactive: [11] 101 % of control | [12] 108 % of control | [13] 108 % of control

CC1(C)CC(OP(=O)(N(CCCl)CCCl)N2CC2)CC(C)(C)N1O (stereo not drawn)
inactive: dose: 13.0 mg/kg/injection, schedule: Q01DX009 (ip), vehicle: saline + alcohol 102 % of control | dose: 25.0 mg/kg/injection, schedule: Q01DX009 (ip), vehicle: saline + alcohol 102 % of control | dose: 50.0 mg/kg/injection, schedule: Q01DX009 (ip), vehicle: saline + alcohol 114 % of control

O=[N+]([O-])C(c1ccccc1)C(c1ccccc1)[N+](=O)[O-] (stereo not drawn)
inactive: [16] 98 % of control | [17] 101 % of control | [1] 109 % of control and 112 % of control and 119 % of control | [2] 109 % of control and 110 % of control

NC(Cc1ccc2ccccc2c1Br)C(=O)O (stereo not drawn)
inactive: [11] 99 % of control | [12] 99 % of control | [13] 97 % of control

COC(=O)C#CCO
inactive: dose: 6.25 mg/kg/injection, schedule: Q01DX009 (ip), vehicle: water 103 % of control | dose: 12.5 mg/kg/injection, schedule: Q01DX009 (ip), vehicle: water 112 % of control and 94 % of control | dose: 25.0 mg/kg/injection, schedule: Q01DX009 (ip), vehicle: water 112 % of control and 120 % of control | dose: 50.0 mg/kg/injection, schedule: Q01DX009 (ip), vehicle: water 112 % of control and 122 % of control

COc1ccc2nccc(/C=C/c3ccnc4ccc(OC)cc34)c2c1
inactive: [1] 103 % of control | [2] 103 % of control | [3] 100 % of control

CN(C)C(=S)S(C)(=O)=O
inactive: [5] 107 % of control | [6] 109 % of control | [7] 103 % of control and 107 % of control

Nc1nc2c(C(=O)c3ccco3)nnn2c2cccc(Cl)c12
inactive: [8] 100 % of control | [9] 104 % of control | [10] 104 % of control

O=C(Nc1ccc(-c2cn3ccccc3n2)cc1)c1ccccc1O
inactive: [15] 88 % of control | [18] 87 % of control | [19] 101 % of control

COc1ccc(-n2c(=O)[nH]c3ccccc3c2=O)cc1
inactive: [15] 108 % of control | [18] 100 % of control | [19] 104 % of control

CC(C)(C)C1=CP(=O)(c2ccccc2)C=C(C(C)(C)C)N1
inactive: [1] 106 % of control | [2] 108 % of control | [3] 98 % of control

COc1cc(NCCCCCNCC(C)(C)C)c2ncccc2c1
inactive: [16] 109 % of control | [17] 107 % of control | [1] 91 % of control and 93 % of control

O=S(=O)(Nc1nccs1)c1ccc(Nc2c3ccccc3nc3ncccc23)cc1
inactive: [8] 93 % of control | [9] 89 % of control

CC(C)S(=O)(=O)/C(Cl)=C(/Cl)C(Cl)=C(Cl)Cl
inactive: [4] 100 % of control | [14] 109 % of control | [15] 95 % of control

COc1ccc(C2CCC[C@H](CCc3ccc(O)cc3)O2)cc1 (stereo partly drawn)
inactive: [1] 97 % of control | [2] 114 % of control | [3] 109 % of control

CCCCCCCCCCCCCCCCCC(=O)[O][Hg][c]1ccccc1
inactive: dose: 2.5 mg/kg/injection, schedule: Q04DX003 (ip), vehicle: Klucel (hydroxypropylcellulose) (HPC) 100 % of control | dose: 5.0 mg/kg/injection, schedule: Q04DX003 (ip), vehicle: Klucel (hydroxypropylcellulose) (HPC) 100 % of control | dose: 10.0 mg/kg/injection, schedule: Q04DX003 (ip), vehicle: Klucel (hydroxypropylcellulose) (HPC) 100 % of control

C=C(C)C(=O)OCCN(CC)CC
inactive: [1] 100 % of control | [2] 99 % of control | [3] 100 % of control

c1ccc(Cc2csc3nc4ccccc4n23)cc1
inactive: [8] 100 % of control | [9] 109 % of control | [10] 99 % of control

C=C(C)C1CC2=C(C(=O)OC)C=C(O2)C(C(=C)C)C2C=C(C(=O)O2)C2OC12 (stereo not drawn)
inactive: dose: 12.5 mg/kg/injection, schedule: Q01DX005 (ip), vehicle: saline + alcohol 99 % of control | dose: 25.0 mg/kg/injection, schedule: Q01DX005 (ip), vehicle: saline + alcohol 103 % of control | dose: 50.0 mg/kg/injection, schedule: Q01DX005 (ip), vehicle: saline + alcohol 97 % of control | dose: 100.0 mg/kg/injection, schedule: Q01DX005 (ip), vehicle: saline + alcohol 108 % of control
